Results from patent US20130158111A1, “Compositions and Methods for Depleting Mutant p53” (Georgetown University, priority 2011, published 2013).

Key:
[1] = molecular target: T1, mutant p53 protein in H596 (G245C) non-small-cell lung cancer cells (Homo sapiens, UniProt P04637, G245C); test: Immunoblot of mutant p53 protein in H596 cells; type: cell-based
T1 construct: host or cells: H596
Excerpt: Human H596, A549, HCT116, MDA-MB-231, MDA-MB-468, MCF-7, DU145, MCF-10A, SW480, and SCC-4 cells were obtained from ATCC (Manassas, Va.). H1299-175H cells were kindly provided by Dr. Maria Laura Avantaggiati (Georgetown University). Cells were maintained in DMEM or RPMI-1640 medium supplemented with 10% FBS (Hyclone). […] 2,2-Diphenylethyl ITC, 4-phenoxybenzyl ITC, 4-methoxybenzyl ITC, 4-chlorobenzyl ITC, Dα-methylbenzyl ITC, trityl ITC, and 3-phenylpropyl ITC were purchased from Trans World Chemicals (Rockville, Md.). Erucin and 4-phenylbutyl ITC were from LKT Laboratories, Inc. (St. Paul, Minn.). […] The p53 DO-1 and β-actin antibodies were purchased from Santa Cruz Biotechnology (Santa Cruz, Calif.), horseradish peroxidase-labeled goat antimouse secondary antibodies were purchased from GE-Healthcare (Pittsburgh, Pa.), and Bio-Rad Protein Assay was from Bio-Rad (Hercules, Calif.).
Whole cell lysates were prepared in lysis buffer (20 mM HEPES, pH 7.4, 2 mM EGTA, 50 mM β-glycerol phosphate, 1% Triton X-100, 10% glycerol, 1 mM DTT, 1 mM PMSF, […], 1 mM Na3-VO4, and 5 mM NaF). For immunoblot analysis, equal amounts of protein were resolved on 4-12% NuPAGE BisTris gels (Invitrogen) and transferred to PVDF membranes (Millipore). The membranes were blocked with 5% milk in TBST and were then probed with p53 (DO-1) or β-actin antibody. Proteins were detected using enhanced chemiluminescence (ECL) reagents (GE Healthcare).

[2] = molecular target: T2, wild-type p53 in A549, HCT116, MCF-7 and MCF-10A cells (Homo sapiens, UniProt P04637); test: Immunoblot of wild-type p53 in cells with wild-type p53; type: cell-based
T2 construct: host or cells: A549, HCT116, MCF-7, MCF-10A
Excerpt: Human H596, A549, HCT116, MDA-MB-231, MDA-MB-468, MCF-7, DU145, MCF-10A, SW480, and SCC-4 cells were obtained from ATCC (Manassas, Va.). H1299-175H cells were kindly provided by Dr. Maria Laura Avantaggiati (Georgetown University). Cells were maintained in DMEM or RPMI-1640 medium supplemented with 10% FBS (Hyclone). DMSO, PEITC, BITC, SFN, AITC, NMPEA, and monochlorobimane were purchased from Sigma-Aldrich (St. Louis, Mo.). 2,2-Diphenylethyl ITC, 4-phenoxybenzyl ITC, 4-methoxybenzyl ITC, 4-chlorobenzyl ITC, Dα-methylbenzyl ITC, trityl ITC, and 3-phenylpropyl ITC were purchased from Trans World Chemicals (Rockville, Md.). Erucin and 4-phenylbutyl ITC were from LKT Laboratories, Inc. (St. Paul, Minn.). […] All the compounds are with purities ≧95% as determined by gas-liquid chromatography or HPLC. […]
Whole cell lysates were prepared in lysis buffer (20 mM HEPES, pH 7.4, 2 mM EGTA, 50 mM β-glycerol phosphate, 1% Triton X-100, 10% glycerol, 1 mM DTT, 1 mM PMSF, […], 1 mM Na3-VO4, and 5 mM NaF). […] Proteins were detected using enhanced chemiluminescence (ECL) reagents (GE Healthcare). […]

[3] = tested on: A549, H596, MCF-7, MDA-MB-231, MDA-MB-468, HCT116 and SW480 cells; test: Caspase-3 colorimetric activity assay (apoptosis), mutant vs wild-type p53 cells; type: cell-based, Human; conditions: PEITC 24 h; lung, breast and colon cell line sets
Description: Caspase-3 activity was measured by detection of the cleavage of a colorimetric caspase-3 substrate, N-acetyl-Asp-Glu-Val-Asp (DEVD)-p-nitroaniline, using an assay kit (R&D Systems, Inc., Minneapolis, Minn.). The assay was performed according to the instructions of the manufacturer. In brief, cells were treated with drugs for 24 h. The cells were collected and lysed in ice-cold lysis buffer provided by the manufacturer. The same amount of protein extracts (100-200 μg) were incubated in a reaction buffer containing N-acetyl-DEVD-p-nitroaniline at 37 gC for 2-4 h. The levels of the resulting proteolytic fragment p-nitroanilide were measured as optical density at 405 nm with a plate reader. The data represent the mean±SD of three independent experiments.
The role of p53 in the induction of apoptosis by ITCs is not well established and likely to be cell-specific. […] To examine this possibility, we assessed the cytotoxicity induced by PEITC in cancer cells containing either wild-type or mutant p53. Three sets of cell lines from lung, breast, and colon were used: A549 (wild-type p53) and H596 (mutant p53) lung cancer cells, MCF-7 (wild-type p53) and MDA-MB-231 and MDA-MB-468 (mutant p53) breast cancer cells, and HCT116 (wild-type p53) and SW480 (mutant p53) colon cancer cells. After treating with PEITC for 24 h, apoptosis was determined by caspase-3 activity assay.

mda-mb-231 (R280K) cells = test: Cell proliferation, mda-mb-231; type: cell-based, Human
Description: Next, the effect of PEITC exposure on tumor growth of the tumor cell lines expressing mutant or the WT p53 protein was examined. […] This hypersensitivity to PEITC being mediated through mutant p53 was next examined. The effect of PEITC on mda-mb-231 cells depleted of mutant p53 by >90% was compared to non-specific (NS) siRNA transfected cells as a control (FIG. 9B). […] Further the effect of PEITC treatment on the level of mutant p53 protein at lower doses was analyzed by western blot analysis (FIG. 9D).

`S=C=NCCc1ccccc1` [PEITC, phenethyl isothiocyanate] was tested, and the “mutant p53 protein level” value ([1]; H596 (G245C), 15 μM PEITC, immunoblot) was “rapid depletion”, the “earliest time at which depletion of mutant p53 occurred” value ([1]; H596, 15 μM PEITC) was 2 h and the “time at which depletion of mutant p53 peaked” value ([1]; H596, 15 μM PEITC, sustained during 24 h treatment) was 4 h. For the same compound, the “depletion of mutant p53 at equimolar concentrations” value ([1]; H596, 20 μM ITCs, 24 h, compared with DMSO control) was “approximately the same extent”, the “wild-type p53 expression” value ([2]; 15 or 20 μM PEITC for 2, 4, 8, and 24 h) was “did not decrease” and the “level of wild type (WT) p53 protein” value ([2]; PEITC exposure, summary of previous experiments) was “no significant decrease”. The “sensitivity of mutant p53 cancer cells vs wild-type cells to PEITC-induced apoptosis (caspase-3 activity)” value [3] was “significantly more sensitive”, the inhibition at 1 µM (mda-mb-231 (R280K) cells; Homo sapiens, mda-mb-231 (R280K), 1 μM PEITC) was 55% and the “sensitivity to cell growth inhibition” value (mda-mb-231 (R280K) cells; control (NS) siRNA transfected mda-mb-231 cells) was “highly sensitive”. The “sensitivity to cell growth inhibition” value (mda-mb-231 (R280K) cells; mda-mb-231 cells depleted of mutant p53 by >90% (siRNA)) was “significant reduction in the sensitivity”.
